Measured values taken from patent publication US8741897B2, “Glucocorticoid mimetics, methods of making them, pharmaceutical compositions and uses thereof” (Boehringer Ingelheim Pharmaceuticals Inc., priority 2003, dated 2014).

Key:
[1] = tested on: glucocorticoid receptor function; assay: one or more of the above assays (GR binding and glucocorticoid receptor cell assays: aromatase, IL-6, TAT, MMTV-Luc, IL-8, ICAM-Luc); assay type: cell-based; conditions: assay not specified per compound
[2] = biological target: T1, human glucocorticoid receptor (GR) complex (Homo sapiens, UniProt P04150); assay: Glucocorticoid receptor competitive binding assay (fluorescence polarization, TAMRA-labeled dexamethasone probe); conditions: compounds of Formula (IA)
T1 construct: made in house; host or cells: insect expression system (baculovirus lysate)
T1 sequence (P04150 1-777): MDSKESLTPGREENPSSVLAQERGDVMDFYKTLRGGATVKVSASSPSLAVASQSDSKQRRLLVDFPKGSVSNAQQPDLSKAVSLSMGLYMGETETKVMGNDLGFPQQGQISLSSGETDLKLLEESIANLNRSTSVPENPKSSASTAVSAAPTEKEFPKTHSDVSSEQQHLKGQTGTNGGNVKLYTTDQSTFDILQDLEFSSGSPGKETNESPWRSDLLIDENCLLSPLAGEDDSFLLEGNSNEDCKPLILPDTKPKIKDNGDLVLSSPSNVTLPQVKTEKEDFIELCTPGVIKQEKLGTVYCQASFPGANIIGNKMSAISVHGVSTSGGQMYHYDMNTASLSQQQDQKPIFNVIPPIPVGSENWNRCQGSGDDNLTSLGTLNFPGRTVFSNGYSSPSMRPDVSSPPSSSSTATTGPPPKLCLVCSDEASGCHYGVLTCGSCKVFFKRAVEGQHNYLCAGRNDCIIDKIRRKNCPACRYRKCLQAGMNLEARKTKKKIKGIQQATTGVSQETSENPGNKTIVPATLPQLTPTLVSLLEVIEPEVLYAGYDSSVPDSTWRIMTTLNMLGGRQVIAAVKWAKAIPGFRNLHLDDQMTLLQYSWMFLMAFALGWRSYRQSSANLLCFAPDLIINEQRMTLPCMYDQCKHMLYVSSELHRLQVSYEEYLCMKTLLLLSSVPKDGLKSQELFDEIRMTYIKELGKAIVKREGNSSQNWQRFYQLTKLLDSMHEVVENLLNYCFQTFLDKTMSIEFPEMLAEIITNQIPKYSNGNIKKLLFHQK
In short: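 Fluorescence-polarization competition against 15 nM TAMRA-dexamethasone (stock added to the mix) for human GR complex from baculovirus lysate diluted 1:170. Buffer: 10 mM TES, 50 mM KCl, 20 mM Na2MoO4, 1.5 mM EDTA, 0.04% CHAPS, 10% glycerol, 1 mM DTT, pH 7.4. IC50 from 4-parameter logistic fit.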

SMILES | activity as agonists of the glucocorticoid receptor function in one or more of the above assays [1] | activity in the GR binding assay [2]
COc1ccc(F)cc1C(C)(C)CC(O)(Cc1cc2c(C)cncc2[nH]1)C(F)(F)F (stereo not drawn) [1,1,1-Trifluoro-4-(5-fluoro-2-methoxyphenyl)-4-methyl-2-(4-methyl-1H-pyrrolo[2,3-c]pyridin-2-ylmethyl)pentan-2-ol] | potent agonists | potent activity
Cc1ccc(C(C)(C)CC(O)(Cc2cc3ccccc3[nH]2)C(F)(F)F)cc1F (stereo not drawn) [1,1,1-Trifluoro-4-(3-fluoro-4-methylphenyl)-2-(1H-indol-2-ylmethyl)-4-methylpentan-2-ol] | potent agonists | potent activity
CC(C)(CC(O)(Cc1cc2ccccc2[nH]1)C(F)(F)F)c1ccccn1 (stereo not drawn) [1,1,1-Trifluoro-2-(1H-indol-2-ylmethyl)-4-methyl-4-pyridin-2-ylpentan-2-ol] | potent agonists | potent activity
COc1ccc(F)cc1C(C)(C)CC(O)(Cc1cc2cncnc2[nH]1)C(F)(F)F (stereo not drawn) [1,1,1-Trifluoro-4-(5-fluoro-2-methoxyphenyl)-4-methyl-2-(7H-pyrrolo[2,3-d]pyrimidin-6-ylmethyl)pentan-2-ol] | potent agonists | potent activity
COc1ccc(F)cc1C(C)(C)CC(O)(Cc1cc2cc(Cl)ncc2[nH]1)C(F)(F)F (stereo not drawn) [1,1,1-Trifluoro-4-(5-fluoro-2-methoxyphenyl)-2-(5-chloro-1H-pyrrolo[2,3-c]pyridin-2-ylmethyl)-4-methylpentan-2-ol] | potent agonists | potent activity
Cc1ccc(C)c(C(C)(C)CC(O)(Cc2ccnc3ccccc23)C(F)(F)F)c1 (stereo not drawn) [4-(2,5-Dimethylphenyl)-1,1,1-trifluoro-4-methyl-2-quinolin-4-ylmethylpentan-2-ol] | potent agonists | potent activity
COc1ccc(F)cc1C(C)(C)CC(O)(Cc1cc2ccncc2s1)C(F)(F)F (stereo not drawn) [1,1,1 -Trifluoro-4-(5-fluoro-2-methoxyphenyl)-4-methyl-2-thieno[2,3-c]pyridin-2-ylmethylpentan-2-ol] | potent agonists | potent activity
COc1ccc(F)cc1C(C)(C)CC(O)(Cc1cc2c(C)nc(C)cc2[nH]1)C(F)(F)F (stereo not drawn) [2-(4,6-Dimethyl-1H-pyrrolo[3,2-c]pyridin-2-ylmethyl)-1,1,1-trifluoro-4-(5-fluoro-2-methoxyphenyl)-4-methylpentan-2-ol] | potent agonists | potent activity
Cc1ccc(C(C)(C)CC(O)(Cc2ccnc3ccccc23)C(F)(F)F)cc1C (stereo not drawn) [4-(3,4-Dimethylphenyl)-1,1,1-trifluoro-4-methyl-2-quinolin-4-ylmethylpentan-2-ol] | potent agonists | potent activity
COc1ccc(F)cc1C(C)(C)CC(O)(Cc1cc2cc(C#N)ncc2[nH]1)C(F)(F)F (stereo not drawn) [2-[4-(5-Fluoro-2-methoxyphenyl)-2-hydroxy-4-methyl-2-trifluoromethylpentyl]-1H-pyrrolo[2,3-c]pyridine-5-carbonitrile] | potent agonists | potent activity
COc1ccc(F)cc1C(C)(C)CC(O)(Cc1cc2ccc(C#N)cc2[nH]1)C(F)(F)F (stereo not drawn) [2-[4-(5-Fluoro-2-methoxyphenyl)-2-hydroxy-4-methyl-2-trifluoromethylpentyl]-1H-indole-6-carbonitrile] | potent agonists | potent activity
Cc1cc(CC(O)(CC(C)(C)c2ccc(F)cc2)C(F)(F)F)c2ccccc2n1 (stereo not drawn) [1,1,1-Trifluoro-4-(4-fluorophenyl)-4-methyl-2-(2-methylquinolin-4-ylmethyl)pentan-2-ol] | potent agonists | potent activity
Cc1c(CC(O)(CC(C)(C)c2cccc(F)c2)C(F)(F)F)[nH]c2ccccc12 (stereo not drawn) [1,1,1-Trifluoro-4-(3-fluorophenyl)-4-methyl-2-(3-methyl-1H-indol-2-ylmethyl)pentan-2-ol] | potent agonists | potent activity
CC(C)(CC(O)(Cc1cc2ncncc2[nH]1)C(F)(F)F)c1cc(Cl)cc2c1OCC2 (stereo not drawn) [4-(5-Chloro-2,3-dihydrobenzofuran-7-yl)-1,1,1-trifluoro-4-methyl-2-(5H-pyrrolo[3,2-d]pyrimidin-6-ylmethyl)pentan-2-ol] | potent agonists | potent activity
COc1ccc(F)cc1C(C)(C)CC(O)(Cc1cc2ncncc2[nH]1)C(F)(F)F (stereo not drawn) [1,1,1-Trifluoro-4-(5-fluoro-2-methoxyphenyl)-4-methyl-2-(5H-pyrrolo[3,2-d]pyrimidin-6-ylmethyl)pentan-2-ol] | potent agonists | potent activity
CC(C)(CC(O)(Cc1cc2cc([N+](=O)[O-])ccc2[nH]1)C(F)(F)F)c1cc(F)ccc1O (stereo not drawn) [4-Fluoro-2-[4,4,4-trifluoro-3-hydroxy-1,1-dimethyl-3-(5-nitro-1H-indol-2-ylmethyl)butyl]phenol] | potent agonists | potent activity
COc1ccc(F)cc1C(C)(C)CC(O)(Cc1cc2cnncc2s1)C(F)(F)F (stereo not drawn) [1,1,1-Trifluoro-4-(5-fluoro-2-methoxyphenyl)-4-methyl-2-thieno[2,3-d]pyridazin-2-ylmethylpentan-2-ol] | potent agonists | potent activity
CC(C)(CC(O)(Cc1cc2ccncc2[nH]1)C(F)(F)F)c1cc(Br)cc2c1OCC2 (stereo not drawn) [4-(5-Bromo-2,3-dihydrobenzofuran-7-yl)-1,1,1-trifluoro-4-methyl-2-(1H-pyrrolo[2,3-c]pyridin-2-ylmethyl)pentan-2-ol] | potent agonists | potent activity
COc1ccc(F)cc1C(C)(C)CC(O)(Cc1ccnc(C#N)c1)C(F)(F)F (stereo not drawn) [4-[4-(5-Fluoro-2-methoxyphenyl)-2-hydroxy-4-methyl-2-trifluoromethylpentyl]pyridine-2-carbonitrile] | potent agonists | potent activity
COc1ccc(F)cc1C(C)(C)CC(O)(Cc1cc2cnc(C)cc2[nH]1)C(F)(F)F (stereo not drawn) [1,1,1-Trifluoro-4-(5-fluoro-2-methoxyphenyl)-4-methyl-2-(6-methyl-1H-pyrrolo[3,2-c]pyridin-2-ylmethyl)pentan-2-ol] | potent agonists | potent activity
Cc1ccc(F)cc1C(C)(C)CC(O)(Cc1[nH]c2cnccc2c1C)C(F)(F)F (stereo not drawn) [1,1,1-Trifluoro-4-(5-fluoro-2-methylphenyl)-4-methyl-2-(3-methyl-1H-pyrrolo[2,3-c]pyridin-2-ylmethyl)pentan-2-ol] | potent agonists | potent activity
COc1ccc(C(C)(C)C)cc1C(C)(C)CC(O)(Cc1[nH]c2ccccc2c1C#N)C(F)(F)F (stereo not drawn) [2-[4-(5-tert-Butyl-2-methoxyphenyl)-2-hydroxy-4-methyl-2-trifluoromethylpentyl]-1H-indole-3-carbonitrile] | potent agonists | potent activity
COc1ccc(F)cc1C(C)(C)CC(O)(Cc1cc2cc(C(=O)NCC(N)=O)ccc2[nH]1)C(F)(F)F (stereo not drawn) [2-[4-(5-Fluoro-2-methoxyphenyl)-2-hydroxy-4-methyl-2-trifluoromethylpentyl]-1H-indole-5-carboxylic acid carbamoylmethylamide] | potent agonists | potent activity
COc1ccc(F)cc1C(C)(C)CC(O)(Cc1ccnc2c(C)cc(C)cc12)C(F)(F)F (stereo not drawn) [2-(6,8-Dimethylquinolin-4-ylmethyl)-1,1,1-trifluoro-4-(5-fluoro-2-methoxyphenyl)-4-methylpentan-2-ol] | potent agonists | potent activity
